Legend:
[1] = target: T1, endogenous ATG4B in HeLa cells (Homo sapiens, UniProt Q9Y4P1); experiment: Endogenous ATG4B activity in cells by FRET assay; format: cell-based
T1 construct: endogenous in cells; host or cells: HeLa
Description: Supplementary file 13578_2022_944_MOESM1_ESM.docx: Additional file 1: Figure S1. Screening of ATG4B inhibitors based on the approved drugs library by FRET assay. […] (D) Candidate compound number and name correspondence table, and IC50 calculation of nine commercially available compounds for ATG4B by FRET assay. Figure S2. […] Figure S3. […] Figure S5. […] Figure S6.

[2] = target: T2, Recombinant protein ATG4A (Homo sapiens, UniProt Q8WYN0); experiment: FRET-based assay for ATG4A activity; format: biochemical; conditions: FRET-based enzymatic cleavage
T2 construct: 6xHis; made in house; host or cells: E. coli BL21(DE3)
T2 sequence (Q8WYN0 whole entry): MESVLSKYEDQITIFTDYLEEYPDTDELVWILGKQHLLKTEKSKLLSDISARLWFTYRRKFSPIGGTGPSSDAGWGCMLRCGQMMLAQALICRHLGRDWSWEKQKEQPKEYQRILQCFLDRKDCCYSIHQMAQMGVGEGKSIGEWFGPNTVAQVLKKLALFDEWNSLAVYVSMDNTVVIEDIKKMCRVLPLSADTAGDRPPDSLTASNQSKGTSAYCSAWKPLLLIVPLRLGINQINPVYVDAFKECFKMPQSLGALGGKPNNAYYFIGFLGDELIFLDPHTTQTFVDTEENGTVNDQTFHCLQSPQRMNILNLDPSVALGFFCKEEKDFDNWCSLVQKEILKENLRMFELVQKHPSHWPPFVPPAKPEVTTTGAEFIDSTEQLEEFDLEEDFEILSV
Description: FRET-based assay for ATG4B or ATG4A activity was operated as previously described. Briefly, Recombinant protein ATG4B (0.75 μg/ml) or ATG4A (5 μg/ml) was incubated with compounds in reaction buffer (150 mM NaCl, 20 mM Tris–HCl, pH 8.0, 0.1% CHAPS, 1 mM EDTA) at 37 °C. After 30 min, substrate FRET-GATE-16 (50 μg/ml) was added to a final volume of 50 μl. The reaction was recorded via relative fluorescence intensity ratio of 527 nm/477 nm (RFU). The final inhibition rate of the compound for ATG4 was calculated as: (RFUcompound-RFUNC)/(RFUCON-RFUNC) × 100%; respectively, NC as negative control without inhibitor, CON as control without enzymes. For ATG4 activity determination in cells and tissues, cells or separated tumor samples were homogenized in a native lysis buffer (150 mM NaCl, 20 mM Tris–HCl, pH 7.6, 1% TritonX-100, 1 mM EDTA) without protease inhibitors. Then 5 μg total proteins from each sample was added into FRET assay system after clean supernatant proteins were separated. The reaction was recorded via relative fluorescence intensity ratio of 527 nm/477 nm. Finally, the inhibition rates of ATG4B were calculated with the vehicle or CM group as the negative control (ATG4 activity defined as 100%).

ATG4B C74S mutant = target: T3, ATG4B C74S mutant (Homo sapiens, UniProt Q9Y4P1, C74S); experiment: In vitro thermal shift assay, ATG4B C74S mutant; format: binding; conditions: C74S mutant 100 nM, Ebselen 1 μM, compared with DMSO
T3 construct: 6xHis; made in house; host or cells: E. coli BL21(DE3)
T3 sequence (Q9Y4P1 whole entry C74S): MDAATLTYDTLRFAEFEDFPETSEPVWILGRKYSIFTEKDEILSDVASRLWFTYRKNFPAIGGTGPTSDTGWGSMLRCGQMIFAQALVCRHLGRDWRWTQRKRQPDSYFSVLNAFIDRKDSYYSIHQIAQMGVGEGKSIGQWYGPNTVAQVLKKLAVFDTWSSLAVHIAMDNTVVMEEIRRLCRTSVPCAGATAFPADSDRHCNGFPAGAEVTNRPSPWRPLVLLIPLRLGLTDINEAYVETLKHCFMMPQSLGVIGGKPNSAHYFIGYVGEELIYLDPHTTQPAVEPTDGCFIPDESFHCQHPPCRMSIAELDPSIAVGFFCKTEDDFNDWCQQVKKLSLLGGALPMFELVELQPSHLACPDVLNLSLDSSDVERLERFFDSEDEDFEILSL
Description: For in vitro thermal shift assay, recombinant protein ATG4B or C74S mutant (100 nM) was incubated with Ebselen (1 μM) (DMSO as control) in the PCR tubes. The PCR instrument program was set at 25 °C for 10 min, 37 °C to 70 °C for 30 min and followed by cooling tubes for 5 min at room temperature. Then centrifuged at 12,000 rpm for 10 min at 4 °C, soluble fractions were separated from precipitates to be analyzed by SDS-PAGE and immunoblotting.

ATG4B = target: T4, ATG4B (Homo sapiens, UniProt Q9Y4P1); experiment: Denaturing mass spectrometry of covalent binding; conditions: ATG4B 20 μM, compound 60 μM, 1 h at 37 °C; shift of 275 Da on 57,200 Da form
T4 construct: 6xHis; made in house; host or cells: E. coli BL21(DE3)
T4 sequence (Q9Y4P1 1-393): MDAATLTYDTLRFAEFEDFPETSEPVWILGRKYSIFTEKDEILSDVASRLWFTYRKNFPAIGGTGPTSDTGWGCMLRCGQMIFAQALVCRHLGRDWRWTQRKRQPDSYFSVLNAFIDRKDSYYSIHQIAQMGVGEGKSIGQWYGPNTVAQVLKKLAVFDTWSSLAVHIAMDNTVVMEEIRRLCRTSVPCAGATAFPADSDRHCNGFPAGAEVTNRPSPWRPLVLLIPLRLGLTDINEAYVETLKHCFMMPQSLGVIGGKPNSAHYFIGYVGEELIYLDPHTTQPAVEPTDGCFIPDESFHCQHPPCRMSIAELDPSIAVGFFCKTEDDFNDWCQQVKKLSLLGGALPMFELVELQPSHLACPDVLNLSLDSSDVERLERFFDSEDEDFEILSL
Description: Analysis of covalent binding between protein and ligand was performed by denaturing mass spectrometry. ATG4B WT and related mutant (20 μM) were incubated with or without compound (60 μM) in phosphate buffer for 1 h at 37℃. Then the samples were desalted using ultrafiltration spin columns (0.5 ml, 10 kDa MWCO, PES, Sartorius) and buffer-exchanged into Milli-Q water. Subsequently, samples were diluted containing 0.1% v/v formic acid before being subjected to denaturing electrospray ionization mass spectrometry analysis (TOF, Waters, SYNAPT G2-Si). Spectrum data were processed with MassLynx (Waters).

[3] = target: T5, ATG4B 2CS (C292/361S) mutant (Homo sapiens, UniProt Q9Y4P1, C292S/C361S); experiment: FRET-based assay, ATG4B 2CS mutant; format: biochemical; conditions: Ebselen 0.5 μM, 15-90 min; read-out: inhibition rate against ATG4B 2CS
T5 construct: 6xHis; made in house; host or cells: E. coli BL21(DE3)
T5 sequence (Q9Y4P1 whole entry C292S/C361S): as the sequence (Q9Y4P1 whole entry C74S) above, with S74C, C292S, C361S counted along it
Description: (§1) FRET-based assay for ATG4B or ATG4A activity was operated as previously described [5, 17]. Briefly, Recombinant protein ATG4B (0.75 μg/ml) or ATG4A (5 μg/ml) was incubated with compounds in reaction buffer (150 mM NaCl, 20 mM Tris–HCl, pH 8.0, 0.1% CHAPS, 1 mM EDTA) at 37 °C. After 30 min, substrate FRET-GATE-16 (50 μg/ml) was added to a final volume of 50 μl. The reaction was recorded via relative fluorescence intensity ratio of 527 nm/477 nm (RFU). The final inhibition rate of the compound for ATG4 was calculated as: (RFUcompound-RFUNC)/(RFUCON-RFUNC) × 100%; respectively, NC as negative control without inhibitor, CON as control without enzymes. For ATG4 activity determination in cells and tissues, cells or separated tumor samples were homogenized in a native lysis buffer (150 mM NaCl, 20 mM Tris–HCl, pH 7.6, 1% TritonX-100, 1 mM EDTA) without protease inhibitors. Then 5 μg total proteins from each sample was added into FRET assay system after clean supernatant proteins were separated. The reaction was recorded via relative fluorescence intensity ratio of 527 nm/477 nm. Finally, the inhibition rates of ATG4B were calculated with the vehicle or CM group as the negative control (ATG4 activity defined as 100%).

[4] = system: SW620 cell-based xenografts; experiment: SW620 subcutaneous xenograft tumor model; format: in vivo, BALB/c-nu/nu mice
Description: Fig. 7 Ebselen suppresses colorectal cancer tumor growth. A A brief diagram of the animal experiment for subcutaneous xenografted tumor model. 2 × 10^6 (2e^6) SW620 cells were xenografted into BALB/c-nu/nu mice by subcutaneous injection (s.c.). After 10 days, mice were injected intraperitoneally (i.p.) with indicated doses of Ebselen every two days, and monitoring of tumor volume and body weight changes were performed. B–D Representative tumor images and tumor weight at the end time point were captured from SW620 cell-based xenografts. Mean tumor weight ± SEM (C) and mean tumor volume ± SEM (D) were shown. E The inhibitory effect of ATG4 in xenografted tumors was detected by FRET assay. F, I The protein level of autophagy and apoptosis in xenografted tumors were detected by western blot. Representative results were shown and the statistical results of each group were obtained from seven mice. J, K The immunohistochemistry analysis of Ki67 in xenografted tumors (group vehicle and Ebselen 10 mg/kg). Bar = 20 μm. […]
Four- to six-weeks-old BALB/C nu/nu female mice purchased from the Experimental Animal Center of Sun Yat-Sen University, were approved by the Animal Ethics Committee at Sun Yat-sen University and kept in specific-pathogen-free environment. […] Tumor volume was measured by calipers and calculated using the equation: 0.5 × length × width^2. […]

[5] = system: ATG4 (mainly ATG4B) in tumors; experiment: ATG4 activity in xenografted tumors by FRET assay; format: in vivo, BALB/c-nu/nu mice; conditions: SW620 xenografts, 5, 10, 20 mg/kg
Description: as §1

`O=c1c2ccccc2[se]n1-c1ccccc1` [Ebselen] was tested, and the “inhibition of endogenous ATG4B in cells” value [1] was “inhibited in a time- and dose-dependent manner”, the “inhibition of ATG4A compared to ATG4B” value [2] was “weaker inhibition” and the “thermal stability of C74S mutant” value (ATG4B C74S mutant) was “still a little increased”. For the same compound, the “covalent binding to ATG4B” value (ATG4B) was “covalently binds to ATG4B”, the inhibition at 0.5 µM [3] was < 90% and the anti-tumor effect ([4]; 5 mg/kg i.p. every two days) was “obvious anti-tumor effect”. The growth of tumors ([4]; 5, 10, 20 mg/kg i.p. every two days, compared with vehicle) was “significantly suppress the growth of tumors” and the “activity of ATG4 in tumors” value [5] was “significantly inhibited in a dose-dependent manner”.

— article PMC9767854, “Discovery and mechanism studies of a novel ATG4B inhibitor Ebselen by drug repurposing and its anti-colorectal cancer effects in mice” (Cell & Bioscience, 2022)
